Results from patent publication US12421254B2, “KRAS modulators and uses thereof” (Quanta Therapeutics, Inc., priority 2023, dated 2025).

Experiments:
[1] = target: GST-tagged KRAS-G12D (2-169) (Homo sapiens, UniProt P01116, G12D); assay: Nucleotide exchange assay (NEA), SOS-mediated, HTRF, KRAS G12D; format: biochemical; conditions: Table 4; IC50 extracted at 30 min; 20 nM SOScat; read-out: NEA G12D IC50
In short: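 SOS1cat-driven loading of fluorescent GTP-DY-647P1 (150 nM) onto GST-KRAS-G12D (2-169, 0.25 nM) read by time-resolved FRET; SOScat 20 nM, compound preincubated with KRAS 1 h at RT. Signal blanked to no-SOS reactions, normalized to DMSO; IC50 fitted from the 30-min read.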

[2] = target: GST-tagged KRAS-G12V (2-169) (Homo sapiens, UniProt P01116, G12V); assay: Nucleotide exchange assay (NEA), SOS-mediated, HTRF, KRAS G12V; format: biochemical; conditions: Table 4; IC50 extracted at 90 min; 80 nM SOS
In short: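 Exchange onto fluorescent GTP-DY-647P1 (150 nM final) catalysed by 80 nM SOS1cat was followed by Tb-anti-GST HTRF at RT for up to 90 min, after 1 h compound pre-incubation with 0.25 nM GST-tagged KRAS-G12V (2-169), pH 7.3. DMSO = 0%, no-SOS blank = 100%; 4-parameter IC50 taken at 90 min.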

Sequence of GST-tagged KRAS-G12V (2-169) (P01116 2-169 isoform P01116-2 G12V): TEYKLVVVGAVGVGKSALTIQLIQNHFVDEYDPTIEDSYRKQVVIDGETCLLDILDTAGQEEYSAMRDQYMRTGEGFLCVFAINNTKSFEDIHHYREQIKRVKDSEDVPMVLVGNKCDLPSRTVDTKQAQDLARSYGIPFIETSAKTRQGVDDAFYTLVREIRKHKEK
Sequence of GST-tagged KRAS-G12D (2-169) (P01116 2-169 isoform P01116-2 G12D): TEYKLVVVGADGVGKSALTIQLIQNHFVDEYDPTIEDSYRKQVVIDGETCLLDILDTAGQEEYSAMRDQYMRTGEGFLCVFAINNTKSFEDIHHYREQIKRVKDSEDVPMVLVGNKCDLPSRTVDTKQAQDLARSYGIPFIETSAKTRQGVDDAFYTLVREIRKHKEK

| SMILES | IC50 [1] [nM] | IC50 [2] [nM] |
| --- | --- | --- |
| N#Cc1c(N)sc2c1C1(CC2)CN(c2nc(OCC3(O)CC3)nc(OC[C@@]34CCCN3C[C@H](F)C4)n2)C1 [Compound 76, 2-amino-1′-[4-[[(2R,8S)-2-fluoro-1,2,3,5,6,7-hexahydropyrrolizin-8-yl]methoxy]-6-[(1-hydroxycyclopropyl)methoxy]-1,3,5-triazin-2-yl]spiro[5,6-dihydrocyclopenta[b]thiophene-4,3′-azetidine]-3-carbonitrile] | 1000 to 20000 | 100 to 1000 |
| N#Cc1c(N)sc2c1C1(CN(c3nc(OCC4(CN5CCOCC5)CC4)nc(N4CCNC[C@@H]4C(F)F)n3)C1)SC2 [Compound 193, (R)-2′-amino-1-(4-(2-(difluoromethyl)piperazin-1-yl)-6-((1-(morpholinomethyl)cyclopropyl)methoxy)-1,3,5-triazin-2-yl)-6′H-spiro[azetidine-3,4′-thieno[3,4-b]thiophene]-3′-carbonitrile] | < 10 | 10 to 100 |
| CN(c1nc(OC[C@@]23CCCN2C[C@H](F)C3)nc(N2CC3(CCc4sc(N)c(C#N)c43)C2)n1)[C@@H]1CCC[C@@H]1O (racemic) [Compound 92, 2-amino-1′-[4-[[(2R,8S)-2-fluoro-1,2,3,5,6,7-hexahydropyrrolizin-8-yl]methoxy]-6-[[rac-(1R,2S)-2-hydroxycyclopentyl]-methyl-amino]-1,3,5-triazin-2-yl]spiro[5,6-dihydrocyclopenta[b]thiophene-4,3′-azetidine]-3-carbonitrile] | 100 to 1000 | 100 to 1000 |
| CN(CC(=O)NC(=N)N)c1nc(OC[C@@]23CCCN2C[C@H](F)C3)nc(N2CC3(C2)SCc2sc(N)c(C#N)c23)n1 [Compound 215, 2-[[4-(2-amino-3-cyano-spiro[6H-thieno[3,4-b]thiophene-4,3′-azetidine]-1′-yl)-6-[[(2R,8S)-2-fluoro-1,2,3,5,6,7-hexahydropyrrolizin-8-yl]methoxy]-1,3,5-triazin-2-yl]-methyl-amino]-N-carbamimidoyl-acetamide] | 100 to 1000 | 100 to 1000 |
| CC(c1nccnc1N)N(C)c1nc(OC[C@@]23CCCN2C[C@H](F)C3)nc(N2CC3(CCc4sc(N)c(C#N)c43)C2)n1 (stereo partly drawn) [Compound 102, 2-amino-1′-[4-[1-(3-aminopyrazin-2-yl)ethyl-methyl-amino]-6-[[(2R,8S)-2-fluoro-1,2,3,5,6,7-hexahydropyrrolizin-8-yl]methoxy]-1,3,5-triazin-2-yl]spiro[5,6-dihydrocyclopenta[b]thiophene-4,3′-azetidine]-3-carbonitrile] | 10 to 100 | < 10 |
| C[C@]1(CO)C[C@H](O)CN1c1nc(OC[C@@]23CCCN2C[C@H](F)C3)nc(N2CC3(CCc4sc(N)c(C#N)c43)C2)n1 [Compound 72, 2-amino-1′-[4-[[(2R,8S)-2-fluoro-1,2,3,5,6,7-hexahydropyrrolizin-8-yl]methoxy]-6-[(2R,4S)-4-hydroxy-2-(hydroxymethyl)-2-methyl-pyrrolidin-1-yl]-1,3,5-triazin-2-yl]spiro[5,6-dihydrocyclopenta[b]thiophene-4,3′-azetidine]-3-carbonitrile] | 100 to 1000 | 100 to 1000 |
| N#Cc1c(N)sc2c1C1(CN(c3nc(OC[C@@]45CCCN4C[C@H](F)C5)nc(N4C5COCC4C5)n3)C1)SC2 [Compound 265, 2-amino-1′-[4-[[(2R,8S)-2-fluoro-1,2,3,5,6,7-hexahydropyrrolizin-8-yl]methoxy]-6-(3-oxa-6-azabicyclo[3.1.1]heptan-6-yl)-1,3,5-triazin-2-yl]spiro[6H-thieno[3,4-b]thiophene-4,3′-azetidine]-3-carbonitrile] | 100 to 1000 | 10 to 100 |
| N#Cc1c(N)sc2c1C1(CN(c3nc(OC[C@@]45CCCN4C[C@H](F)C5)nc(N(CCN)C4(C#N)CC4)n3)C1)SC2 [Compound 272, 2-amino-1′-[4-[2-aminoethyl-(1-cyanocyclopropyl)amino]-6-[[(2R,8S)-2-fluoro-1,2,3,5,6,7-hexahydropyrrolizin-8-yl]methoxy]-1,3,5-triazin-2-yl]spiro[6H-thieno[3,4-b]thiophene-4,3′-azetidine]-3-carbonitrile; formic acid] | < 10 | 10 to 100 |
| C[C@H](c1cccnc1N)N(CC(F)F)c1nc(OC[C@@H]2C[C@@H](F)CN2C)nc(N2CC3(C2)SCc2sc(N)c(C#N)c23)n1 [Compound 197, 2′-amino-1-(4-(((R)-1-(2-aminopyridin-3-yl)ethyl)(2,2-difluoroethyl)amino)-6-(((2S,4R)-4-fluoro-1-methylpyrrolidin-2-yl)methoxy)-1,3,5-triazin-2-yl)-6′H-spiro[azetidine-3,4′-thieno[3,4-b]thiophene]-3′-carbonitrile] | < 10 | < 10 |
| CC(c1ccc[n+]([O-])c1)N(C)c1nc(OC[C@@]23CCCN2C[C@H](F)C3)nc(N2CC3(C2)SCc2sc(N)c(C#N)c23)n1 (stereo partly drawn) [Compound 224, 3-(1-((4-(2′-amino-3′-cyano-6′H-spiro[azetidine-3,4′-thieno[3,4-b]thiophen]-1-yl)-6-(((2R,7aS)-2-fluorotetrahydro-1H-pyrrolizin-7a(5H)-yl)methoxy)-1,3,5-triazin-2-yl)(methyl)amino)ethyl)pyridine 1-oxide] | 10 to 100 | 10 to 100 |
| COC[C@@H]1CC[C@@H](COc2nc(N3CC4(C3)SCc3sc(N)c(C#N)c34)nc(N(CC(F)F)C(C)c3cccnc3N)n2)N1 (mixture of isomers) [Compound 211, 2-amino-1′-[4-[[(1R)-1-(2-amino-3-pyridyl)ethyl]-(2,2-difluoroethyl)amino]-6-[[(2SR,5SR)-5-(methoxymethyl)pyrrolidin-2-yl]methoxy]-1,3,5-triazin-2-yl]spiro[6H-thieno[3,4-b]thiophene-4,3′-azetidine]-3-carbonitrile] | < 10 | < 10 |
| COc1ccc(C(C)N(C)c2nc(OC[C@@]34CCCN3C[C@H](F)C4)nc(N3CC4(C3)SCc3sc(N)c(C#N)c34)n2)c(N)n1 (stereo partly drawn) [Compound 233, 2′-amino-1-(4-((1-(2-amino-6-methoxypyridin-3-yl)ethyl)(methyl)amino)-6-(((2R,7aS)-2-fluorotetrahydro-1H-pyrrolizin-7a(5H)-yl)methoxy)-1,3,5-triazin-2-yl)-6′H-spiro[azetidine-3,4′-thieno[3,4-b]thiophene]-3′-carbonitrile] | 1000 to 20000 | 100 to 1000 |
| CN(c1nc(OC[C@@]23CCCN2C[C@H](F)C3)nc(N2CC3(CCc4sc(N)c(C#N)c43)C2)n1)[C@H]1COC[C@H]1O (racemic) [Compound 53, 2-amino-1′-[4-[[(2R,8S)-2-fluoro-1,2,3,5,6,7-hexahydropyrrolizin-8-yl]methoxy]-6-[[rac-(3S,4S)-4-hydroxytetrahydrofuran-3-yl]-methyl-amino]-1,3,5-triazin-2-yl]spiro[5,6-dihydrocyclopenta[b]thiophene-4,3′-azetidine]-3-carbonitrile] | 1000 to 20000 | 100 to 1000 |
| CCN(c1nc(OC[C@]2(C(F)F)CCCN2)nc(N2CC3(C2)SCc2sc(N)c(C#N)c23)n1)[C@H](C)c1cccnc1N [Compound 221, 2-amino-1′-[4-[[(1R)-1-(2-amino-3-pyridyl)ethyl]-ethyl-amino]-6-[[(2S)-2-(difluoromethyl)pyrrolidin-2-yl]methoxy]-1,3,5-triazin-2-yl]spiro[6H-thieno[3,4-b]thiophene-4,3′-azetidine]-3-carbonitrile] | < 10 | < 10 |
| C[C@@]1(O)CCCN(c2nc(OCC3(CN4CCOCC4)CC3)nc(N3CCC4(CCCc5sc(N)c(C#N)c54)C3)n2)C1 (stereo partly drawn) [Compound 64, 2-amino-1′-[4-[(3R)-3-hydroxy-3-methyl-1-piperidyl]-6-[[1-(morpholinomethyl)cyclopropyl]methoxy]-1,3,5-triazin-2-yl]spiro[6,7-dihydro-5H-benzothiophene-4,3′-pyrrolidine]-3-carbonitrile] | 1000 to 20000 | 1000 to 20000 |
| C[C@@]1(O)CCCN(c2nc(OC[C@@]34CCCN3C[C@H](F)C4)nc(N3CCC4(CCCc5sc(N)c(C#N)c54)C3)n2)C1 (stereo partly drawn) [Compound 60, 2-amino-1′-[4-[[(2R,8S)-2-fluoro-1,2,3,5,6,7-hexahydropyrrolizin-8-yl]methoxy]-6-[(3R)-3-hydroxy-3-methyl-1-piperidyl]-1,3,5-triazin-2-yl]spiro[6,7-dihydro-5H-benzothiophene-4,3′-pyrrolidine]-3-carbonitrile] | 1000 to 20000 | 1000 to 20000 |
| CCN(c1nc(OCC23CCC(CN(C)C2)N3C)nc(N2CC3(C2)SCc2sc(N)c(C#N)c23)n1)[C@H](C)c1cccnc1N (stereo partly drawn) [Compound 218, 2′-amino-1-(4-(((R)-1-(2-aminopyridin-3-yl)ethyl)(ethyl)amino)-6-((3,8-dimethyl-3,8-diazabicyclo[3.2.1]octan-1-yl)methoxy)-1,3,5-triazin-2-yl)-6′H-spiro[azetidine-3,4′-thieno[3,4-b]thiophene]-3′-carbonitrile] | 10 to 100 | < 10 |
| N#Cc1c(N)sc2c1C1(CN(c3nc(OC[C@@]45CCCN4C[C@H](F)C5)nc(N(Cc4cccnc4N)C4COC4)n3)C1)SC2 [Compound 217, 2-amino-1′-[4-[(2-amino-3-pyridyl)methyl-(oxetan-3-yl)amino]-6-[[(2R,8S)-2-fluoro-1,2,3,5,6,7-hexahydropyrrolizin-8-yl]methoxy]-1,3,5-triazin-2-yl]spiro[6H-thieno[3,4-b]thiophene-4,3′-azetidine]-3-carbonitrile] | 1000 to 20000 | 100 to 1000 |
